Test results: patent publication US10947254B2, “Methods for treating ulcerative colitis using 3-((1R,3s,5S)-3-((7-((5-methyl-1H-pyrazol-3-yl)amino)-1,6-naphthyridin-5-yl)amino)-8-azabicyclo[3.2.1]octan-8-yl)propanenitrile” (priority 2015, dated 2021)

Each compound was assayed on IL-13 induced STAT6 phosphorylation in BEAS-2B human lung epithelial cells. Details: BEAS-2B cells.

Row | SMILES | BEAS2B pIC50
1 | COc1cnc2cc(Nc3cc(C)[nH]n3)nc(N[C@@H]3C[C@H]4CC[C@@H](C3)N4CC(C)C)c2c1 [Example 6-14] | A (A represents a pEC50 value ≥7.5 (EC50≤32 nM))
2 | COc1ccc2c(N[C@@H]3C[C@H]4CC[C@@H](C3)N4CCC#N)nc(Nc3cc(C)[nH]n3)cc2n1 [Example 5-8] | A (A represents a pEC50 value ≥7.5 (EC50≤32 nM))
3 | COC(=O)c1cnc2cc(Nc3cc(C)[nH]n3)nc(N[C@@H]3C[C@H]4CCC[C@@H](C3)N4CCC#N)c2c1 [Example 6-47] | A (A represents a pEC50 value ≥7.5 (EC50≤32 nM))
4 | COc1cnc2cc(Nc3cc(C)[nH]n3)nc(N[C@@H]3C[C@H]4CC[C@@H](C3)N4C(=O)OCC(C)C)c2c1 [Example 6-25] | A (A represents a pEC50 value ≥7.5 (EC50≤32 nM))
5 | Cc1cc(Nc2nc(N[C@@H]3C[C@H]4CC[C@@H](C3)N4S(=O)(=O)c3cncc(F)c3)c3cccnc3c2F)n[nH]1 [Example 8-5] | A (A represents a pEC50 value ≥7.5 (EC50≤32 nM))
6 | Cc1cc(Nc2nc(N[C@@H]3C[C@H]4CCC[C@@H](C3)N4S(C)(=O)=O)c3cccnc3c2F)n[nH]1 [Example 8-10] | A (A represents a pEC50 value ≥7.5 (EC50≤32 nM))
7 | Cc1cc(Nc2cc3ncccc3c(N[C@@H]3C[C@H]4CCC[C@@H](C3)N4Cc3ccncc3C#N)n2)n[nH]1 [Example 1-56] | A (A represents a pEC50 value ≥7.5 (EC50≤32 nM))
8 | Cc1cc(Nc2cc3ncccc3c(N[C@@H]3C[C@H]4CCC[C@@H](C3)N4CCC(F)(F)F)n2)n[nH]1 [Example 1-44] | A (A represents a pEC50 value ≥7.5 (EC50≤32 nM))
9 | Cc1cc(Nc2cc3ncccc3c(N[C@@H]3C[C@H]4CC[C@@H](C3)N4C(=O)C(C)F)n2)n[nH]1 (stereo partly shown) [Example 2-3] | A (A represents a pEC50 value ≥7.5 (EC50≤32 nM))
10 | Cc1cc(Nc2cc3ncccc3c(N[C@@H]3C[C@H]4CCC[C@@H](C3)N4CCF)n2)n[nH]1 [Example 1-39] | A (A represents a pEC50 value ≥7.5 (EC50≤32 nM))
11 | Cc1cnc2cc(Nc3cc(C)[nH]n3)nc(N[C@@H]3C[C@H]4CC[C@@H](C3)N4CCC#N)c2c1 [Example 6-1] | A (A represents a pEC50 value ≥7.5 (EC50≤32 nM))
12 | Cc1cc(Nc2cc3nc(CN4CCOCC4)ccc3c(N[C@@H]3C[C@H]4CCC[C@@H](C3)N4S(C)(=O)=O)n2)n[nH]1 [Example 5-22] | A (A represents a pEC50 value ≥7.5 (EC50≤32 nM))
13 | COc1ccc2c(N[C@@H]3C[C@H]4CC[C@@H](C3)N4CCCC#N)nc(Nc3cc(C)[nH]n3)cc2n1 [Example 5-2] | A (A represents a pEC50 value ≥7.5 (EC50≤32 nM))
14 | CCC(CC#N)N1[C@@H]2CC[C@H]1C[C@H](Nc1nc(Nc3cc(C)[nH]n3)cc3ncccc13)C2 (stereo partly shown) [Example 1-22] | A (A represents a pEC50 value ≥7.5 (EC50≤32 nM))
15 | Cc1cc(Nc2cc3ncc(S(C)(=O)=O)cc3c(N[C@@H]3C[C@H]4CC[C@@H](C3)N4Cc3ccncc3)n2)n[nH]1 [Example 6-59] | C (C represents a pEC50 value <6.7 (EC50>200 nM))
16 | C=CCOC(=O)N1[C@@H]2CC[C@H]1C[C@H](Nc1nc(Nc3cc(C)[nH]n3)cc3nc(CN4CCOCC4)ccc13)C2 [Example 5-17] | A (A represents a pEC50 value ≥7.5 (EC50≤32 nM))
17 | Cc1cc(Nc2cc3ncccc3c(N[C@@H]3C[C@H]4CCC[C@@H](C3)N4C(=O)c3ccc(C#N)nc3)n2)n[nH]1 [Example 2-28] | C (C represents a pEC50 value <6.7 (EC50>200 nM))
18 | Cc1cc(Nc2cc3ncccc3c(N[C@@H]3C[C@H]4CCC[C@@H](C3)N4C(=O)c3cncc(C#N)c3)n2)n[nH]1 [Example 2-26] | C (C represents a pEC50 value <6.7 (EC50>200 nM))
19 | Cc1cc(Nc2nc(N[C@@H]3C[C@H]4CCC[C@@H](C3)N4S(=O)(=O)c3ccccc3)c3cccnc3c2F)n[nH]1 [Example 8-11] | A (A represents a pEC50 value ≥7.5 (EC50≤32 nM))
20 | C=CCOC(=O)N1[C@@H]2CC[C@H]1C[C@H](Nc1nc(Nc3cc(C)[nH]n3)cc3nc(OC)ccc13)C2 [Example 5-7] | A (A represents a pEC50 value ≥7.5 (EC50≤32 nM))
21 | Cc1cc(Nc2nc(N[C@@H]3C[C@H]4CCC[C@@H](C3)N4S(=O)(=O)c3cncc(F)c3)c3cccnc3c2F)n[nH]1 [Example 8-13] | A (A represents a pEC50 value ≥7.5 (EC50≤32 nM))
22 | Cc1cc(Nc2cc3ncccc3c(N[C@@H]3C[C@H]4CCC[C@@H](C3)N4C(=O)c3ccnc(C#N)c3)n2)n[nH]1 [Example 2-30] | C (C represents a pEC50 value <6.7 (EC50>200 nM))

The compounds below were run on IL-4 induced STAT6 phosphorylation in THP-1 human monocytic cells. Details: THP-1 cells.

Row | SMILES | THP-1 IL4 pIC50
23 | COc1cnc2cc(Nc3cc(C)[nH]n3)nc(N[C@@H]3C[C@H]4CC[C@@H](C3)N4CC(C)C)c2c1 [Example 6-14] | A (A represents a pEC50 value ≥7.5 (EC50≤32 nM))
24 | COc1ccc2c(N[C@@H]3C[C@H]4CC[C@@H](C3)N4CCC#N)nc(Nc3cc(C)[nH]n3)cc2n1 [Example 5-8] | A (A represents a pEC50 value ≥7.5 (EC50≤32 nM))
25 | COC(=O)c1cnc2cc(Nc3cc(C)[nH]n3)nc(N[C@@H]3C[C@H]4CCC[C@@H](C3)N4CCC#N)c2c1 [Example 6-47] | A (A represents a pEC50 value ≥7.5 (EC50≤32 nM))
26 | Cc1cc(Nc2nc(N[C@@H]3C[C@H]4CCC[C@@H](C3)N4S(C)(=O)=O)c3cccnc3c2F)n[nH]1 [Example 8-10] | A (A represents a pEC50 value ≥7.5 (EC50≤32 nM))
27 | Cc1cc(Nc2cc3ncccc3c(N[C@@H]3C[C@H]4CCC[C@@H](C3)N4Cc3ccncc3C#N)n2)n[nH]1 [Example 1-56] | A (A represents a pEC50 value ≥7.5 (EC50≤32 nM))
28 | Cc1cc(Nc2cc3ncccc3c(N[C@@H]3C[C@H]4CCC[C@@H](C3)N4CCC(F)(F)F)n2)n[nH]1 [Example 1-44] | A (A represents a pEC50 value ≥7.5 (EC50≤32 nM))
29 | Cc1cc(Nc2cc3ncccc3c(N[C@@H]3C[C@H]4CCC[C@@H](C3)N4CCF)n2)n[nH]1 [Example 1-39] | A (A represents a pEC50 value ≥7.5 (EC50≤32 nM))
30 | Cc1cnc2cc(Nc3cc(C)[nH]n3)nc(N[C@@H]3C[C@H]4CC[C@@H](C3)N4CCC#N)c2c1 [Example 6-1] | A (A represents a pEC50 value ≥7.5 (EC50≤32 nM))
31 | Cc1cc(Nc2cc3ncc(S(C)(=O)=O)cc3c(N[C@@H]3C[C@H]4CC[C@@H](C3)N4CCF)n2)n[nH]1 [Example 6-54] | C (C represents a pEC50 value <6.7 (EC50>200 nM))
32 | COC(=O)c1cnc2cc(Nc3cc(C)[nH]n3)nc(N[C@@H]3C[C@H]4CC[C@@H](C3)N4C(=O)CN(C)C)c2c1 [Example 6-39] | C (C represents a pEC50 value <6.7 (EC50>200 nM))
33 | COC(=O)CCCN1[C@@H]2CCC[C@H]1C[C@H](Nc1nc(Nc3cc(C)[nH]n3)cc3ncccc13)C2 [Example 1-34] | C (C represents a pEC50 value <6.7 (EC50>200 nM))
34 | C=CCOC(=O)N1[C@@H]2CCC[C@H]1C[C@H](Nc1nc(Nc3cc(C)[nH]n3)cc3ncccc13)C2 [Example 3-8] | A (A represents a pEC50 value ≥7.5 (EC50≤32 nM))
35 | Cc1cc(Nc2cc3ncc(S(C)(=O)=O)cc3c(N[C@@H]3C[C@H]4CC[C@@H](C3)N4C(=O)CC#N)n2)n[nH]1 [Example 6-51] | C (C represents a pEC50 value <6.7 (EC50>200 nM))
36 | COC(=O)CCN1[C@@H]2CCC[C@H]1C[C@H](Nc1nc(Nc3cc(C)[nH]n3)cc3ncccc13)C2 [Example 1-33] | C (C represents a pEC50 value <6.7 (EC50>200 nM))
37 | Cc1cc(Nc2cc3ncc(S(C)(=O)=O)cc3c(N[C@@H]3C[C@H]4CC[C@@H](C3)N4CCC#N)n2)n[nH]1 [Example 6-50] | C (C represents a pEC50 value <6.7 (EC50>200 nM))
38 | Cc1cc(Nc2cc3ncccc3c(N[C@@H]3C[C@H]4CC[C@@H](C3)N4CC(=O)N[C@H]3CCOC3=O)n2)n[nH]1 [Example 1-12] | C (C represents a pEC50 value <6.7 (EC50>200 nM))
39 | COC(=O)CCCN1[C@@H]2CC[C@H]1C[C@H](Nc1nc(Nc3cc(C)[nH]n3)cc3ncccc13)C2 [Example 1-3] | C (C represents a pEC50 value <6.7 (EC50>200 nM))

Row | SMILES | THP-1 IL4 pIC50
40 | Cc1cc(Nc2cc3ncccc3c(N[C@@H]3C[C@H]4CC[C@@H](C3)N4C(C)CC#N)n2)n[nH]1 (stereo partly shown) [Example 1-21] | A (A represents a pEC50 value ≥7.5 (EC50≤32 nM))
41 | Cc1cc(Nc2cc3ncccc3c(N[C@@H]3C[C@H]4CC[C@@H](C3)N4CC(=O)N[C@@H]3CCOC3=O)n2)n[nH]1 [Example 1-11] | C (C represents a pEC50 value <6.7 (EC50>200 nM))
42 | Cc1cc(Nc2cc3nc(CS(C)(=O)=O)ccc3c(N[C@@H]3C[C@H]4CC[C@@H](C3)N4CCF)n2)n[nH]1 [Example 5-41] | C (C represents a pEC50 value <6.7 (EC50>200 nM))
43 | CCOC(=O)N1[C@@H]2CCC[C@H]1C[C@H](Nc1nc(Nc3cc(C)[nH]n3)cc3ncccc13)C2 [Example 3-6] | A (A represents a pEC50 value ≥7.5 (EC50≤32 nM))
44 | Cc1cc(Nc2cc3ncc(S(C)(=O)=O)cc3c(N[C@@H]3C[C@H]4CC[C@@H](C3)N4[C@@H]3CCOC3=O)n2)n[nH]1 [Example 6-57] | C (C represents a pEC50 value <6.7 (EC50>200 nM))
45 | COc1ccnc2cc(Nc3cc(C)[nH]n3)nc(N[C@@H]3C[C@H]4CC[C@@H](C3)N4C(=O)CN(C)C)c12 [Example 7-3] | C (C represents a pEC50 value <6.7 (EC50>200 nM))
46 | COCCOC(=O)N1[C@@H]2CCC[C@H]1C[C@H](Nc1nc(Nc3cc(C)[nH]n3)cc3ncccc13)C2 [Example 3-9] | A (A represents a pEC50 value ≥7.5 (EC50≤32 nM))
47 | Cc1cnc2c(F)c(Nc3cc(C)[nH]n3)nc(N[C@@H]3C[C@H]4CC[C@@H](C3)N4S(=O)(=O)c3cccnc3)c2c1 [Example 8-20] | C (C represents a pEC50 value <6.7 (EC50>200 nM))
48 | C=CCS(=O)(=O)N1[C@@H]2CCC[C@H]1C[C@H](Nc1nc(Nc3cc(C)[nH]n3)cc3ncccc13)C2 [Example 4-22] | A (A represents a pEC50 value ≥7.5 (EC50≤32 nM))
49 | Cc1cc(Nc2cc3nc(CS(C)(=O)=O)ccc3c(N[C@@H]3C[C@H]4CC[C@@H](C3)N4CCCF)n2)n[nH]1 [Example 5-42] | C (C represents a pEC50 value <6.7 (EC50>200 nM))
50 | CCC(=O)N1[C@@H]2CCC[C@H]1C[C@H](Nc1nc(Nc3cc(C)[nH]n3)cc3ncccc13)C2 [Example 2-15] | A (A represents a pEC50 value ≥7.5 (EC50≤32 nM))
51 | COC(=O)CN1[C@@H]2CC[C@H]1C[C@H](Nc1nc(Nc3cc(C)[nH]n3)cc3ncccc13)C2 [Example 1-1] | C (C represents a pEC50 value <6.7 (EC50>200 nM))
52 | Cc1cc(Nc2cc3nc(CN4CCOCC4)ccc3c(N[C@@H]3C[C@H]4CCC[C@@H](C3)N4CCC#N)n2)n[nH]1 [Example 5-26] | A (A represents a pEC50 value ≥7.5 (EC50≤32 nM))
53 | CCS(=O)(=O)N1[C@@H]2CC[C@H]1C[C@H](Nc1nc(Nc3cc(C)[nH]n3)c(F)c3ncccc13)C2 [Example 8-3] | A (A represents a pEC50 value ≥7.5 (EC50≤32 nM))
54 | Cc1cnc2cc(Nc3cc(C)[nH]n3)nc(N[C@@H]3C[C@H]4CC[C@@H](C3)N4Cc3ccncc3)c2c1 [Example 6-2] | A (A represents a pEC50 value ≥7.5 (EC50≤32 nM))
55 | C=CCOC(=O)N1[C@@H]2CC[C@H]1C[C@H](Nc1nc(Nc3cc(C)[nH]n3)cc3ncc(C(=O)OC)cc13)C2 [Example 6-40] | A (A represents a pEC50 value ≥7.5 (EC50≤32 nM))
